We go through seven compounds from PMC6677754, “In silico design and optimization of selective membranolytic anticancer peptides” (Scientific Reports, 2019).

Peptide text beside a SMILES is read from it.

The subject of series [1] is noncancer HDMEC primary cells (human dermal microvascular endothelial cells). As to the kind of experiment: Cell viability assay (MTT). The note with it: Table S2; noncancer primary cells; MTT, 24 h; mean ± sd; N = 2 independent measurements with six technical replicates each (Figs S6-S8). Format: cell-based. The procedure: 10% fetal bovine serum and 1% penicillin-streptomycin (Thermo Fisher Scientific, Waltham, MA, USA). The cultures were kept at 37°C in a 5% CO2 atmosphere incubator (Thermo Fisher Scientific, Waltham, MA, USA) and split every two to three days to new culture flasks. Cells no older than 20 passages were used for experiments.
For splitting, the cell culture media was aspirated, the cells were washed with 0.01 M phosphate buffered saline (PBS, Gibco, Thermo Fisher Scientific, Waltham, MA, USA) and trypsin-EDTA (trypsin - ethylene diamine tetraacetic acid, Fisher scientific, UK) was added to the cell layer to detach them from the flask surface. After incubation for 2 min at 37°C, cells were resuspended with an equal volume of DMEM media and centrifuged at 310 g for 5 min at 4°C. After removal of the supernatant the cells were resuspended in DMEM cell media and split into new cell culture flasks at a 1/3 to 1/5 ratio.
Determination of the anticancer peptides half effective concentration (EC50) was performed by a 3-(4,5-dimethylthiazol-2-yl)-2,5-diphenyltetrazolium bromide (MTT) assay, as described elsewhere21. Briefly, […] were seeded in each well of a 96-well plate and left to adhere and […]
sulfoxide (DMSO, Fisher Scientific, UK) at an intermediate concentration of 1 mM. The peptides were then diluted in a 2-fold dilution series starting at 100 μM with DMEM culture media. Cells were incubated with the peptide solutions for 24 h. After this time, the cell media was removed and the cells were incubated for 1 h with a 0.5 mg mL−1 MTT solution to allow enough time for formazan crystal formation (Sigma Aldrich, Steinheim, Germany). The supernatant was removed and 100 μL of DMSO were added into each well to resuspend the formazan crystals.
After manually shaking the plates to completely dissolve the crystals, the absorbance was measured at 540 nm in a Tecan Infinity M1000 spectrophotometer. The cell viability was determined based on the quantification of the color intensity in each culture well, considering the absorbance obtained by the control media without peptides as a 100% survival. The resultant sigmoidal curves were analyzed with the drc22 R package using a log-logistic model

The subject of the next series is human erythrocytes. As to the kind of experiment: Hemolysis assay. Type of series: cell-based. The note with it: 1 h. On the procedure:
Human erythrocytes were freshly ordered at the Blutspende Zürich. Erythrocytes were washed 3 times with a […] phosphate buffered saline (PBS, Gibco, Thermo Fisher Scientific, Waltham, MA, USA) solution centrifuging at 800 g for 10 min or until the supernatant appeared clear to remove the blood plasma. A 5% v/v erythrocytes : PBS solution was prepared for direct use. For HC50 determination, peptides were dissolved in PBS at an intermediate concentration of 1 mM. A dilution series of the peptide from 200 to 6.25 μM was plated in a round-bottomed 96-well plate in triplicates, with a volume of 50 μL per well. PBS buffer and a solution of 0.1% Triton-X-100 (Fisher Chemical, Loughborough, UK) in PBS were employed as negative and positive controls, respectively. 50 μL of the 5% erythrocyte solution were added in each well and the plates were incubated at 37°C for 1 h. After this time, 100 μL PBS were added to each well and plates were centrifuged at 800 g for 10 min. 100 μL of the supernatant were transferred to a flat-bottomed 96-well plate and the absorbance was measured at 540 nm in a Tecan Infinity M1000 spectrophotometer plate reader. The hemolysis percentage was calculated, considering the absorbance values of the Triton and PBS wells as 100% and 0% hemolysis, respectively.
The resultant sigmoidal curves were analyzed with the drc22 R package using a log-logistic model with 3 fixed parameters to obtain the HC50 values. […]
NCI-60 screening procedure […]
Each peptide was tested in a 5-concentration assay, starting at 10^-4 M and diluting 10-fold to the lowest 10^-8 M concentration. The peptides were incubated for 48 h and the cell concentration was assayed by using the sulforhodamine B assay25 and optical density measurements. The growth inhibition (GI50) value24, measures the growth inhibitory power of the drug agent. The GI50 value is the concentration of the test drug for which the condition in Eq. S1 is met, where T is the optical density of the test well after a 48-h exposure to the peptide, T0 the optical density before applying the peptide drug and C the control optical density of a well where no peptide was applied.

Series [2] concerns MCF7 breast adenocarcinoma cell line. As to the kind of experiment: Cell viability assay (MTT). Type of series: cell-based, human. As to conditions: Table S2, 24 h, mean ± sd, N = 2 independent measurements with six technical replicates each (Figs S6-S8). Put shortly: (§1)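 Viability by MTT: 10^4 cells/well exposed 24 h to 2-fold peptide dilutions from 100 μM in DMEM, then 1 h with 0.5 mg mL−1 MTT; absorbance at 540 nm relative to peptide-free medium as 100% survival. EC50 from a 3-parameter log-logistic fit.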

Series [3] concerns A549 lung adenocarcinoma cell line. Nature of the series: Cell viability assay (MTT). Format: cell-based, human. The note with it: Table S2; MTT, 24 h; mean ± sd; N = 2 independent measurements with six technical replicates each (Figs S6-S8); read-out: A549 EC50 /µM. The essentials:
as §1

Consider `CC[C@H](C)[C@H](NC(=O)[C@H](CCCCN)NC(=O)[C@H](CCCCN)NC(=O)[C@H](CC(C)C)NC(=O)[C@H](CC(C)C)NC(=O)[C@@H](N)CCC(N)=O)C(=O)N[C@@H](CCCNC(=N)N)C(=O)N[C@H](C(=O)N[C@@H](Cc1c[nH]c2ccccc12)C(=O)N[C@@H](Cc1ccc(O)cc1)C(=O)N[C@@H](CCCNC(=N)N)C(=O)N[C@@H](CCCCN)C(=O)N[C@@H](C)C(=O)N[C@@H](Cc1c[nH]c2ccccc12)C(=O)N[C@@H](Cc1c[nH]cn1)C(=O)N[C@H](C(=O)N[C@@H](Cc1ccc(O)cc1)C(=O)NCC(=O)N[C@@H](CCCCN)C(=O)N[C@H](C(N)=O)C(C)C)C(C)C)[C@@H](C)O` [Off2.2.9] (H-QLLKKIRTWYRKAWHVYGKV-NH2), for which the EC50 in series [1] amounted to 21 ± 2 µM; in series [2] it was 13 ± 1 µM; in series [3], 28 ± 3 µM. Also, the “Eryhtr. HC50 /µM” value in the series with human erythrocytes (red cells of human) is more than 200 µM.

Regarding `CC[C@H](C)[C@H](NC(=O)[C@@H](N)CCC(N)=O)C(=O)N[C@@H](Cc1ccc(O)cc1)C(=O)N[C@@H](CCCCN)C(=O)N[C@@H](CCCCN)C(=O)N[C@@H](Cc1ccc(O)cc1)C(=O)N[C@@H](CCCNC(=N)N)C(=O)N[C@H](C(=O)N[C@@H](Cc1c[nH]c2ccccc12)C(=O)N[C@@H](Cc1ccc(O)cc1)C(=O)N[C@@H](CCCNC(=N)N)C(=O)N[C@@H](CCCCN)C(=O)N[C@@H](C)C(=O)N[C@@H](Cc1c[nH]c2ccccc12)C(=O)N[C@@H](CCCCN)C(=O)N[C@H](C(=O)N[C@@H](CC(C)C)C(=O)NCC(=O)N[C@@H](CCCCN)C(=O)N[C@H](C(N)=O)C(C)C)C(C)C)[C@@H](C)O` [Off2.2.10] (H-QIYKKYRTWYRKAWKVLGKV-NH2), the figures for the EC50 in series [1], in series [2] and in series [3] were 71 ± 12 µM, 16.9 ± 0.8 µM and 36 ± 7 µM, respectively. The “Eryhtr. HC50 /µM” value with human erythrocytes (red cells of human) was more than 200 µM.

For `CC[C@H](C)[C@H](NC(=O)[C@H](CCCCN)NC(=O)[C@H](CCCCN)NC(=O)[C@@H](NC(=O)[C@@H](NC(=O)[C@@H](N)CCC(N)=O)[C@@H](C)CC)[C@@H](C)CC)C(=O)N[C@@H](CCCNC(=N)N)C(=O)N[C@H](C(=O)N[C@@H](Cc1c[nH]c2ccccc12)C(=O)N[C@@H](Cc1ccc(O)cc1)C(=O)N[C@@H](CCCNC(=N)N)C(=O)N[C@@H](CCCCN)C(=O)N[C@@H](C)C(=O)N[C@@H](Cc1c[nH]c2ccccc12)C(=O)N[C@@H](Cc1c[nH]cn1)C(=O)N[C@H](C(=O)N[C@@H](CC(C)C)C(=O)NCC(=O)N[C@@H](CCCCN)C(=O)N[C@H](C(N)=O)C(C)C)C(C)C)[C@@H](C)O` [Off2.2] (H-QIIKKIRTWYRKAWHVLGKV-NH2), the values for the EC50 in series [1], in series [2] and in series [3] were 42 ± 7 µM, 11.6 ± 0.8 µM and 20 ± 1 µM, respectively. Moreover, the “Eryhtr. HC50 /µM” value with human erythrocytes (Table S2, 5% v/v erythrocytes in PBS added 1:1, peptide 200 to 6.25 µM, 37°C, absorbance 540 nm, 0.1% Triton-X-100 = 100%, mean ± sd, N = 2 independent, three technical replicates) is recorded as more than 200 µM.

With `CC[C@H](C)[C@H](NC(=O)[C@H](CCCCN)NC(=O)CNC(=O)[C@@H](NC(=O)[C@@H](NC(=O)[C@H](Cc1c[nH]cn1)NC(=O)[C@H](Cc1c[nH]c2ccccc12)NC(=O)[C@@H]1CCCN1C(=O)[C@H](CCCCN)NC(=O)[C@H](CCCCN)NC(=O)[C@H](CC(C)C)NC(=O)[C@H](Cc1ccccc1)NC(=O)[C@H](Cc1c[nH]cn1)NC(=O)[C@H](CCCNC(=N)N)NC(=O)[C@H](Cc1ccccc1)NC(=O)[C@H](CCCCN)NC(=O)[C@H](CCCCN)NC(=O)[C@H](Cc1ccc(O)cc1)NC(=O)[C@H](CC(C)C)NC(=O)[C@@H](N)[C@@H](C)O)C(C)C)C(C)C)C(N)=O` [Off2.3] (H-TLYKKFRHFLKKPWHVVGKI-NH2), the EC50 in series [1] is 167 ± 13 µM; in series [2], 65 ± 3 µM; in series [3] it was more than 100 µM. For the same compound, the “Eryhtr. HC50 /µM” value in the series on human erythrocytes (red cells of human) is given as more than 200 µM.

For `CC[C@H](C)[C@H](NC(=O)[C@H](CC(C)C)NC(=O)[C@H](CCCCN)NC(=O)[C@H](Cc1ccccc1)NC(=O)[C@@H]1CCCN1C(=O)[C@H](CCCCN)NC(=O)[C@H](Cc1c[nH]cn1)NC(=O)[C@H](Cc1ccccc1)NC(=O)[C@H](Cc1c[nH]c2ccccc12)NC(=O)[C@@H](NC(=O)[C@H](CCCCN)NC(=O)[C@H](CC(C)C)NC(=O)[C@H](Cc1c[nH]cn1)NC(=O)[C@H](CCCNC(=N)N)NC(=O)[C@@H](NC(=O)[C@H](Cc1ccc(O)cc1)NC(=O)[C@@H](N)Cc1c[nH]cn1)[C@@H](C)CC)[C@@H](C)O)C(=O)NCC(=O)N[C@@H](CCCCN)C(=O)N[C@H](C(N)=O)C(C)C` [Off2.4] (H-HYIRHLKTWFHKPFKLIGKV-NH2), the figures for the EC50 in series [1], in series [2] and in series [3] were 169 ± 28 µM, more than 100 µM and more than 100 µM, respectively. Moreover, in the series with human erythrocytes (red cells of human), the “Eryhtr. HC50 /µM” value was more than 200 µM.

`CC[C@H](C)[C@H](NC(=O)[C@@H](N)CCCCN)C(=O)N[C@@H](Cc1ccccc1)C(=O)N[C@@H](CCCCN)C(=O)N[C@@H](CCCCN)C(=O)N[C@@H](Cc1ccccc1)C(=O)N[C@@H](CCCCN)C(=O)N[C@@H](CC(=O)O)C(=O)N[C@@H](Cc1c[nH]c2ccccc12)C(=O)N[C@@H](Cc1ccccc1)C(=O)N[C@@H](CCCCN)C(=O)N[C@@H](CCCCN)C(=O)N[C@@H](C)C(=O)N[C@@H](Cc1ccccc1)C(=O)N[C@@H](Cc1c[nH]cn1)C(=O)N[C@H](C(=O)N[C@@H](CC(C)C)C(=O)NCC(=O)N[C@@H](CCCCN)C(=O)N[C@H](C(N)=O)C(C)C)C(C)C` [Off2.5] (H-KIFKKFKDWFKKAFHVLGKV-NH2): the EC50 in series [1] was 22 ± 1 µM; in series [2], 10.4 ± 0.8 µM; in series [3] it was 14.8 ± 0.7 µM. Further, the “Eryhtr. HC50 /µM” value in the series on human erythrocytes (red cells of human) is given as more than 100 µM.

Take `CC[C@H](C)[C@H](NC(=O)[C@H](CCC(N)=O)NC(=O)[C@H](Cc1ccccc1)NC(=O)[C@H](C)NC(=O)[C@H](CCCCN)NC(=O)[C@H](CCCCN)NC(=O)[C@H](Cc1ccc(O)cc1)NC(=O)[C@H](Cc1c[nH]c2ccccc12)NC(=O)[C@@H](NC(=O)[C@H](CCCCN)NC(=O)[C@@H](NC(=O)[C@H](CCCCN)NC(=O)[C@H](CCCCN)NC(=O)[C@H](Cc1ccccc1)NC(=O)[C@@H](NC(=O)[C@@H](N)CCC(N)=O)[C@@H](C)CC)C(C)C)[C@@H](C)O)C(=O)N[C@@H](CC(C)C)C(=O)NCC(=O)N[C@@H](CCCNC(=N)N)C(=O)N[C@@H](CC(C)C)C(N)=O` [Off2.6] (H-QIFKKVKTWYKKAFQILGRL-NH2): the EC50 in series [1] is 21 ± 2 µM; in series [2] it was 9.3 ± 0.2 µM; in series [3] it was 12.4 ± 0.1 µM. In the series on human erythrocytes (red cells of human), the “Eryhtr. HC50 /µM” value is more than 100 µM.
